These molecules were tested on human monocytic cell line U937 (assay: Human U937 cellular necroptosis assay). Conditions: U-937; U937 cells stimulated with 25 ng/mL human TNFalpha and 25 μM z-VAD-FMK; 22 hr; viability by Cell Titer-Glo 2.0; read-out: hU937 IC50.
Assay type: cell-based
Description: Human U937 Cellular Necroptosis Assay
The human monocytic cell line U937 (CRL-1593.2) may be purchased from ATCC. The cells are routinely maintained in RPMI-1640 Medium (Gibco, Catalog #11875-093) supplemented with 10% heat inactivated fetal bovine serum (Gibco, Catalog #16140-071), 100 units/mL penicillin and 100 μg/mL streptomycin (Gibco, Catalog #15140-122), in a humidified incubator (37° C., 5% CO2). For the assay, cells are resuspended in RPMI-1640 phenol red free Media (Gibco, Catalog #11835-030) supplemented with 10% fetal bovine serum (Sigma, Catalog #F2442), 100 units/mL penicillin and 100 ug/mL streptomycin. Cells are stimulated with 25 ng/mL human TNFalpha (Cell Sciences, Catalog #CSI15659B) and 25 μM z-VAD-FMK (R&D Systems, Catalog #FMK001) followed by seeding 5000 cells per well in a volume of 40 μL to a white, CulturPlate-384 (Perkin Elmer, Catalog #6007680). Stock solutions of the test compounds are prepared in 100% DMSO (Sigma, Catalog #D2650) and serially diluted 1:3 using 100% DMSO. Compounds are additionally diluted 1:40 in assay medium, and 10 μL/well was transferred to the plate. Following the compound addition, the plate is incubated at 37° C. and 5% CO2 for 22 hr. After 22 hr, viability is assessed with the addition of 20 μL of Cell Titer-Glo 2.0 (Promega, Catalog #G9243). The tissue culture plate is shaken on an orbital shaker at 300 RPM for 15 minutes at room temperature in the dark. Luminescence is measured using a PerkinElmer Envision™ plate reader. IC50 values are calculated using a four-parameter logistic curve fit using Genedata Screener software. Compounds disclosed herein are expected to have activity in this assay.

| Compound | IC50 [nM] |
| --- | --- |
| CN1C(=O)[C@@H](NC(=O)c2ncc(Cl)c(-c3ccccc3)n2)COc2cc(F)cnc21 [Example 69, (S)-5-chloro-N-(8-fluoro-5-methyl-4-oxo-2,3,4,5-tetrahydropyrido[3,2-b]-[1,4]oxazepin-3-yl)-4-phenylpyrimidine-2-carboxamide] | 7.41 |
| CN1C(=O)[C@@H](NC(=O)c2ncc(Cl)c(-c3cnccn3)n2)COc2cc(Cl)cnc21 [Example 112, (S)-5-chloro-N-(8-chloro-5-methyl-4-oxo-2,3,4,5-tetrahydropyrido[3,2-b]-[1,4]oxazepin-3-yl)-4-(pyrazin-2-yl)pyrimidine-2-carboxamide] | 92.9 |
| CN1C(=O)[C@@H](NC(=O)c2ncc(Cl)c(-c3cc(F)ccc3F)n2)COc2ccc(NCC3(CCl)CCOCC3)cc21 [Example 142, (S)-5-chloro-N-(7-(((4-(chloromethyl)tetrahydro-2H-pyran-4-yl)methyl)amino)-5-methyl-4-oxo-2,3,4,5-tetrahydrobenzo[b]-[1,4]oxazepin-3-yl)-4-(2,5-difluorophenyl)pyrimidine-2-carboxamide] | 19 |
| Cc1cc(F)cc(F)c1-c1ccnc(C(=O)N[C@H]2COc3cc(Cl)cnc3N(C)C2=O)n1 [Example 90, (S)-N-(8-chloro-5-methyl-4-oxo-2,3,4,5-tetrahydro-pyrido[3,2-b][1,4]oxazepin-3-yl)-4-(2,4-difluoro-6-methylphenyl)pyrimidine-2-carboxamide] | 83.5 |
| Cc1cnc(C(=O)N[C@H]2COc3cc(Cl)cnc3N(C)C2=O)nc1-c1cc(C(F)(F)F)cs1 [Example 157, (S)-N-(8-chloro-5-methyl-4-oxo-2,3,4,5-tetrahydro-pyrido[3,2-b][1,4]oxazepin-3-yl)-5-methyl-4-(4-(trifluoromethyl)thiophen-2-yl)-pyrimidine-2-carboxamide] | 423 |
| Cc1cnc(C(=O)N[C@H]2COc3ccc(S(C)(=O)=O)cc3N(C)C2=O)nc1-c1ccccc1F [Example 171, (S)-4-(2-fluorophenyl)-5-methyl-N-(5-methyl-7-(methylsulfonyl)-4-oxo-2,3,4,5-tetrahydrobenzo[b][1,4]oxazepin-3-yl)pyrimidine-2-carboxamide] | 120 |
| CN1C(=O)[C@@H](NC(=O)c2ncc(S(C)(=N)=O)c(-c3ccccc3)n2)COc2cc(Cl)cnc21 (stereo partly drawn) [Example 127, N-((S)-8-chloro-5-methyl-4-oxo-2,3,4,5-tetrahydro-pyrido[3,2-b][1,4]oxazepin-3-yl)-5-(S-methylsulfonimidoyl)-4-phenylpyrimidine-2-carboxamide] | 3950 |
| CN1C(=O)[C@@H](NC(=O)c2ncc(Cl)c(-c3ccn4cnnc4c3)n2)COc2cc(Cl)cnc21 [Example 115, (S)-4-([1,2,4]triazolo[4,3-a]pyridin-7-yl)-5-chloro-N-(8-chloro-5-methyl-4-oxo-2,3,4,5-tetrahydropyrido[3,2-b]-[1,4]oxazepin-3-yl)pyrimidine-2-carboxamide] | 330 |
| Cc1cc(-c2nc(C(=O)N[C@H]3COc4cc(Cl)cnc4N(C)C3=O)ncc2Cl)ccc1F [Example 100, (S)-5-chloro-N-(8-chloro-5-methyl-4-oxo-2,3,4,5-tetrahydropyrido[3,2-b]-[1,4]oxazepin-3-yl)-4-(4-fluoro-3-methylphenyl)pyrimidine-2-carboxamide] | 12.2 |
| CN1C(=O)[C@@H](NC(=O)c2ncc(CN)c(-c3ccccc3)n2)COc2cc(Cl)cnc21 [Example 162, (S)-5-(aminomethyl)-N-(8-chloro-5-methyl-4-oxo-2,3,4,5-tetrahydropyrido[3,2-b][1,4]oxazepin-3-yl)-4-phenylpyrimidine-2-carboxamide] | 122 |
| CN1C(=O)[C@@H](NC(=O)c2ncc(Cl)c(-c3cccc(C#N)c3)n2)COc2cc(Cl)cnc21 [Example 104, (S)-5-chloro-N-(8-chloro-5-methyl-4-oxo-2,3,4,5-tetrahydropyrido[3,2-b]-[1,4]oxazepin-3-yl)-4-(3-cyanophenyl)pyrimidine-2-carboxamide] | 32.1 |
| [2H]C([2H])([2H])N1C(=O)[C@@H](NC(=O)c2ncc(C)c(-c3ccccc3F)n2)COc2cc(F)cnc21 [Example 170, (S)—N-(8-fluoro-5-(methyl-d3)-4-oxo-2,3,4,5-tetrahydropyrido[3,2-b][1,4]oxazepin-3-yl)-4-(2-fluorophenyl)-5-methylpyrimidine-2-carboxamide] | 15.8 |
| Cc1ccc(C(=O)Nc2cccc(Cl)c2F)nc1-c1cc(F)ccc1F [Example 35, N-(3-chloro-2-fluorophenyl)-6-(2,5-difluorophenyl)-5-methylpicolinamide] | ≥ 10000 |
| CN1C(=O)[C@@H](NC(=O)c2ncc(Cl)c(-c3ccc(Cl)cc3)n2)COc2cc(F)cnc21 [Example 82, (S)-5-chloro-4-(4-chlorophenyl)-N-(8-fluoro-5-methyl-4-oxo-2,3,4,5-tetrahydropyrido[3,2-b]-[1,4]oxazepin-3-yl)pyrimidine-2-carboxamide] | 13.6 |
| CN1C(=O)[C@@H](NC(=O)c2ncc(Cl)c(-c3ccc(F)cc3F)n2)COc2ccccc21 [Example 46, (S)-5-chloro-4-(2,4-difluorophenyl)-N-(5-methyl-4-oxo-2,3,4,5-tetrahydrobenzo[b]-[1,4]oxazepin-3-yl)pyrimidine-2-carboxamide] | 11.8 |
| Cc1cnc(C(=O)N[C@H]2COc3cc(F)cnc3N(C)C2=O)nc1C12CCC(CC1)CC2 [Example 86, (S)-4-(bicyclo[2.2.2]octan-1-yl)-N-(8-fluoro-5-methyl-4-oxo-2,3,4,5-tetrahydro-pyrido[3,2-b][1,4]oxazepin-3-yl)-5-methylpyrimidine-2-carboxamide] | 67.5 |
| Cc1cnc(C(=O)N[C@H]2COc3cccnc3N(C)C2=O)nc1-c1ccc(F)cc1F [Example 60, (S)-4-(2,4-difluorophenyl)-5-methyl-N-(5-methyl-4-oxo-2,3,4,5-tetrahydropyrido[3,2-b]-[1,4]oxazepin-3-yl)pyrimidine-2-carboxamide] | 16.2 |
| Cc1ccc(-c2nc(C(=O)N[C@H]3COc4cc(C#N)ccc4N(C)C3=O)ncc2C)cc1F [Example 1, (S)—N-(8-cyano-5-methyl-4-oxo-2,3,4,5-tetrahydrobenzo[b][1,4]oxazepin-3-yl)-4-(3-fluoro-4-methylphenyl)-5-methylpyrimidine-2-carboxamide] | 12.4 |
| CN1C(=O)[C@@H](NC(=O)c2ncc(Cl)c(-c3ccc(F)cc3F)n2)COc2ccc(Oc3ccn(C)n3)cc21 [Example 148, (S)-5-chloro-4-(2,4-difluorophenyl)-N-(5-methyl-7-((1-methyl-1H-pyrazol-3-yl)oxy)-4-oxo-2,3,4,5-tetrahydrobenzo[b]-[1,4]oxazepin-3-yl)pyrimidine-2-carboxamide] | 8.58 |
| Cc1cnc(C(=O)N[C@H]2CCc3ccccc3NC2=O)nc1-c1ccc(F)c(F)c1 [Example 10, (S)-4-(3,4-difluorophenyl)-5-methyl-N-(2-oxo-2,3,4,5-tetrahydro-1H-benzo[b]azepin-3-yl)pyrimidine-2-carboxamide] | 15.4 |
| Cc1cnc(C(=O)N[C@H]2COc3cc(Cl)cnc3N(C)C2=O)nc1-c1cccc(F)c1F [Example 117, (S)-N-(8-chloro-5-methyl-4-oxo-2,3,4,5-tetrahydro-pyrido[3,2-b][1,4]oxazepin-3-yl)-4-(2,3-difluorophenyl)-5-methylpyrimidine-2-carboxamide] | 14.1 |
| Cc1cnc(C(=O)N[C@H]2COc3cc(Cl)cnc3N(C)C2=O)nc1-c1cncnc1 [Example 122, (S)-N-(8-chloro-5-methyl-4-oxo-2,3,4,5-tetrahydro-pyrido[3,2-b][1,4]oxazepin-3-yl)-5-methyl-[4,5′-bipyrimidine]-2-carboxamide] | 144 |
| Cc1cc(F)cc(F)c1-c1ccnc(C(=O)N[C@H]2COc3cc(F)cnc3N(C)C2=O)n1 [Example 64, (S)-4-(2,4-difluoro-6-methylphenyl)-N-(8-fluoro-5-methyl-4-oxo-2,3,4,5-tetrahydropyrido[3,2-b]-[1,4]oxazepin-3-yl)pyrimidine-2-carboxamide] | 189 |
| Cc1cccc(-c2nc(C(=O)N[C@H]3COc4cc(F)cnc4N(C)C3=O)ncc2Cl)c1 [Example 83, (S)-5-chloro-N-(8-fluoro-5-methyl-4-oxo-2,3,4,5-tetrahydropyrido[3,2-b]-[1,4]oxazepin-3-yl)-4-(m-tolyl)-pyrimidine-2-carboxamide] | 15.1 |
| Cc1cnc(C(=O)N[C@H]2COc3cc(F)cnc3N(C)C2=O)nc1C1CCOCC1 [Example 87, (S)-N-(8-fluoro-5-methyl-4-oxo-2,3,4,5-tetrahydro-pyrido[3,2-b][1,4]oxazepin-3-yl)-5-methyl-4-(tetrahydro-2H-pyran-4-yl)pyrimidine-2-carboxamide] | 157 |
| Cc1cnc(C(=O)N[C@H]2COc3cccnc3N(C)C2=O)nc1-c1ccccc1 [Example 6, (S)-5-methyl-N-(5-methyl-4-oxo-2,3,4,5-tetrahydropyrido[3,2-b][1,4]oxazepin-3-yl)-4-phenylpyrimidine-2-carboxamide] | 12.5 |

Source: US12565490B2, “Inhibitors of Receptor Interacting Protein Kinase I for the treatment of disease” (Board of Regents, The University of Texas System, priority 2020, dated 2026)
